According to article PMC9646747, “An allosteric modulator activates BK channels by perturbing coupling between Ca^2+ binding and pore opening” (Nature Communications, 2022):

Biological target: T1, BK channel (Slo1, mslo1 mbr5 splice variant) (Mus musculus, UniProt Q08460)
T1 construct: gene Kcnma1; mbr5 splice variant of mslo1
Experiment: inside-out patch-clamp of channels expressed in Xenopus oocytes (GV shift dose response; also outward-current block, IC50 […]), supported by mutagenesis
Format: cell-based

Question: For COc1cc(NC(=O)[C@@H](N)CCCNC(=N)N)cc2ccccc12 [BC5], which EC50 is on record?
Answer: Its EC50 is 2500 ± 300 nM.
